Assay results taken from patent US20260373136A1, “A NOVEL DOSAGE REGIMEN USING LOW DOSES OF DONEPEZIL OR DERIVATIVE THEREOF FOR PREVENTING OR TREATING A COMPULSIVE DISORDER” (SORBONNE UNIVERSITE, priority 2022, published 2026).
Where two headings read alike, the source gives them in different places.

Columns and labels:
[1] = Generalized Anxiety Disorders Assessment (GAD-7) questionnaire before and after treatment; format: in vivo, human; settings: for anxiety: GAD-7 post vs pre-treatment; for General anxiety disorder (GAD-7) score, post treatment: 5-9 mild, 10-14 moderate, 15-21 severe anxiety
Experimental: (§1) 6 anorexic patients were treated with donepezil: 5 of them with a daily dose according to the present invention and 1 with a higher dose (comparative).
(§2) The studies were led in hospital. Each case is presented below.
(§3) The treatment started with a daily dose of donepezil of 0.5 mg for 10 days then the daily dose was increased to 1 mg for 7 days then increased to 1.5 mg for 71 days (2 months and 10 days) then increased to 2 mg for 22 days and then increased to 2.5 mg and remains on this dose for 4 months and 18 days.
Patient #2 anxiety has also been evaluated with Generalized Anxiety Disorders Assessment (GAD-7) questionnaire (available on https://adaa.org/sites/default/files/GAD-7_Anxiety-updated_O.pdf) before and after the treatment. The following scores have been obtained:
The score obtained with questionary GAD-7 is classified as follows: • 5-9: mild anxiety; 10-14: moderate anxiety; 15-21: severe anxiety
(§4) The treatment started with a daily dose of donepezil of 0.5 mg for 13 days then the daily dose was increased to 0.75 mg for 9 days then increased to 1 mg for 17 days and then increased to 1.5 mg and remained at this dosage for a month then stopped for two months and then restarted with a daily dose of 1.5 mg that remains within 1 month and then discontinued.
Patient #4 anxiety has also been evaluated with questionnaire GAD-7 before and after the treatment. The following scores have been obtained:
(§5) The treatment started with a daily dose of donepezil of 0.5 mg for 8 days and then the daily dose was increased to 1 mg for 9 days and then increased to 1.67 mg for 62 days and then increased to 2.5 mg.
Patient #6 anxiety has also been evaluated with questionnaire GAD-7 before and after the treatment. The following scores have been obtained:
The score obtained with questionnaire GAD-7 is classified as follows: • 5-9: mild anxiety; 10-14: moderate anxiety; 15-21: severe anxiety

[2] = Patient Health Questionnaire (PHQ-9) before and after treatment; format: in vivo, human; settings: for depression symptoms: PHQ-9 post vs pre-treatment; for Patient Health Questionnaire (PHQ-9) score, post treatment: 5-9 mild, 10-14 moderate, 15-19 moderately severe, 20-27 severe depression
Experimental: as §1, §2, §3
Patient #2 depression symptoms have also been evaluated with Patient Health Questionnaire (PHQ-9) (available on https://med.stanford.edu/fastlab/research/imapp/msrs/_jcr_content/main/accordion/accor dion_content3/download_256324296/file.res/PHQ9%20id%20date%2008.03.pdf) before and after the treatment. The following scores have been obtained:
The score obtained with questionnaire PHQ-9 is classified as follows: • 5-9: mild depression; 10-14: moderate depression; 15-19: moderately severe depression; • 20-27: severe depression
as §4
Patient #4 depression symptoms have also been evaluated with questionnaire PHQ-9 before and after the treatment. The following scores have been obtained:
The score obtained with questionnaire PHQ-9 is classified as follows: • 5-9: mild depression; 10-14: moderate depression; 15-19: moderately severe depression; 20-27: severe depression
as §5
Patient #6 depression symptoms have also been evaluated with questionnaire PHQ-9 before and after the treatment.

[3] = Clinical observation of eating disorder behaviours and cognitions of anorexic patients treated with donepezil; format: in vivo, human
Experimental: as §1, §2
Patient #2 is a person who developed anorexia nervosa restricting type in adolescence. They were very restricted in the types of food they ate and could not eat food that was processed or high in sugar or fats. They exercised 3-4 hours a day. They were unable to reduce their exercising even minimally […] becoming flooded with debilitating anxiety. They were unable to eat enough to maintain a healthy weight. Their BMI was 18.5 kg/m^2 and was medically stable when they started donepezil.
as §3
Patient #3 is a person with a 20-year history of anorexia nervosa binge/purge type who had been in recovery for two years before relapsing following a relationship trauma. They were slowly losing weight and was bingeing and purging multiple times every evening. They also were waking up every morning at 4 am to exercise obsessively for hours. They were spending all their disposable income on binge foods and was slowly draining their savings. At times they were stealing food to binge on.
The treatment started with a daily dose of donepezil of 0.5 mg for 10 days and then the daily dose was increased to 1 mg for 9 days and then increased to 1.5 mg for 17 days and then increased to 2 mg for 7 days and then increased to 2.5 mg for 16 days and then discontinued.
as §4
A patient who has suffered from anorexia nervosa during their second pregnancy. They have been vigilant about their caloric intake and body image since their adolescence. They also suffer from recurrent depression treated with venlafaxine 75 mg per day and a generalized anxiety disorder. Undernutrition worsened markedly, reaching a minimum BMI of 11 kg/m^2. The maximum lifetime BMI excluding pregnancy is 19.8 kg/m^2. The symptomatology is dominated by qualitative and quantitative food restriction and physical hyperactivity. There is a period of several months of hyperphagia and provoked vomiting. Neurocognitive executive functions are preserved, there is a high tolerance of delayed reward measured by Delay Discounting Task.
Donepezil was taken at a rate of 2.5 mg per day for 2 months.
A person with a 20-year history of anorexia nervosa-binge/purge subtype and a comorbid history or obsessive-compulsive disorder. They have been very symptomatic throughout their adolescence and went into a partial remission in early adulthood. Over the next 10 years, their symptoms waxed and waned and they had 2 major relapses that they had slowly recovered from. They were currently weight restored but following some environmental stresses, was starting to relapse. They were struggling with increasing eating disordered ruminations and cognitions, increasing body image distortions and dissatisfaction. They were becoming more rigid and restrictive in their eating. They also saw a rise in their obsessive-compulsive disorder symptoms.
as §5

AChE = settings: background statement; cited from earlier work
[4] = Patient #2, daily dose 0.5-2.5 mg
[5] = Patient #4, daily dose 0.5 to 1.5 mg
[6] = Patient #6, daily dose 0.5 mg to 2.5 mg
[7] = Patient #2, daily dose 0.5-2.5 mg, over the next 5 months
[8] = Patient #3, daily dose 0.5-2.5 mg, within a month of starting
[9] = Patient #6, daily dose 0.5 mg to 2.5 mg, over 3 months
[10] = low dose between 0.5 and 2.5 mg/day, clinical cases overall (conclusion)

**Q.** With `COc1cc2c(cc1OC)C(=O)C(CC1CCN(Cc3ccccc3)CC1)C2` (stereo not drawn) [donepezil] as the compound, how does the anxiety [1, 4] read?
**A.** diminution of their anxiety

**Q.** What about the “General anxiety disorder (GAD-7) score, post treatment” value (“General anxiety disorder” for short) ([1]; Patient #2, daily dose 0.5-2.5 mg, pre-treatment score 16) of the same compound?
**A.** 12

**Q.** And the anxiety [1, 5]?
**A.** diminution of their anxiety

**Q.** And the “General anxiety disorder” value ([1]; Patient #4, daily dose 0.5 to 1.5 mg, pre-treatment score 16)?
**A.** 9

**Q.** What about the anxiety [1, 6] of the same compound?
**A.** strong diminution of their anxiety

**Q.** And the “General anxiety disorder” value ([1]; Patient #6, daily dose 0.5 mg to 2.5 mg, pre-treatment score 15)?
**A.** 3

**Q.** What about the depression symptoms [2, 4] of the same compound?
**A.** diminution of their depression symptoms

**Q.** And the “Patient Health Questionnaire (PHQ-9) score, post treatment” value (“Patient Health Questionnaire” for short) ([2]; Patient #2, daily dose 0.5-2.5 mg, pre-treatment score 10)?
**A.** 4

**Q.** What about the depression symptoms [2, 5] of the same compound?
**A.** diminution of their depression symptoms

**Q.** And the “Patient Health Questionnaire” value ([2]; Patient #4, daily dose 0.5 to 1.5 mg, pre-treatment score 17)?
**A.** 5

**Q.** And the depression symptoms [2, 6]?
**A.** diminution of their depression symptoms

**Q.** And the “Patient Health Questionnaire” value ([2]; Patient #6, daily dose 0.5 mg to 2.5 mg, pre-treatment score 6)?
**A.** 2

**Q.** And the flexibility with eating [3, 7]?
**A.** able to be more flexible with their eating and incorporate a wider variety of foods

**Q.** What about the “preoccupation with weight or appearance” value [3, 7] of the same compound?
**A.** much less preoccupied with their weight or appearance

**Q.** What about the “ruminations and compulsions to exercise” value [3, 7] of the same compound?
**A.** decrease in ruminations and compulsions to exercise

**Q.** And the exercise per day ([3]; Patient #2, daily dose 0.5-2.5 mg, over the next 5 months, exercised 3-4 hours a day before)?
**A.** 90 minutes a day

**Q.** And the “bingeing (and consequent purging)” value [3, 8]?
**A.** able to reduce their bingeing (and consequent purging) significantly

**Q.** What about the stealing food [3, 8] of the same compound?
**A.** stopped stealing food completely

**Q.** And the “maximum spending on binge foods” value ([3]; Patient #3, daily dose 0.5-2.5 mg, within a month of starting, all disposable income before)?
**A.** ≤ 5.00 $

**Q.** And the “flexibility with eating and eating disordered cognitions” value ([3]; Patient #4, daily dose 1.5 mg, within a month)?
**A.** more flexible with their eating and less preoccupied with their eating disordered cognitions and urges to restrict and lose weight

**Q.** What about the “flexibility with eating and weight after restart” value ([3]; Patient #4, donepezil restarted for a month at 1.5 mg daily, improvements continued after discontinuing) of the same compound?
**A.** more flexible with their eating, and they started to gain weight slowly

**Q.** And the “eating disordered cognitions after stopping medication” value ([3]; Patient #4, two months without donepezil after 1st month at 1.5 mg daily)?
**A.** increasing rigidity in their eating disordered cognitions

**Q.** What about the ease of eating ([3]; Patient #5, 2.5 mg per day for 2 months, end of treatment period) of the same compound?
**A.** began to eat more easily

**Q.** And the “eating disordered cognitions and ruminations” value [3, 9]?
**A.** significant decrease in their eating disordered cognitions and ruminations

**Q.** And the “intensity of body image distress” value [3, 9]?
**A.** reduction in the intensity of their body image distress

**Q.** And the “usefulness to treat anorexia and related compulsive behaviors” value [3, 10]?
**A.** useful to treat anorexia and related compulsive behaviors

**Q.** And the “improvement and severe side effects” value (Other patients (#2-#6), 0.5-2.5 mg PO OD (conclusion))?
**A.** improved without severe side effects

**Q.** What about the blood pressure (Patient #1 (comparative), 5 mg daily per os, in local emergency department, previously normal 120/70 mmHg, no other cause found, donepezil discontinued) of the same compound?
**A.** 183/124

**Q.** And the side-effects (Patient #1 (comparative), 5 mg daily per os, within 5 days, responded to over-the-counter pain medications)?
**A.** drowsiness and headaches

**Q.** What about the blood pressure (Patient #1 (comparative), 5 mg daily per os, within a week, previously normal 120/70 mmHg) of the same compound?
**A.** 175/120

**Q.** What about the blood pressure (Patient #1 (comparative), next few weeks after discontinuing donepezil (5 mg daily), previously normal 120/70 mmHg) of the same compound?
**A.** 140/95

**Q.** And the severe side effect (Patient #1, 5 mg PO OD (conclusion))?
**A.** severe side effect (high blood pressure and severe headache)

**Q.** What about the blood pressure [4] of the same compound?
**A.** remained unaffected

**Q.** What about the other side-effects [4] of the same compound?
**A.** no other side-effects

**Q.** And the side effects [10]?
**A.** without causing any side effects

**Q.** What about the “inhibition of AChE” value (AChE) of the same compound?
**A.** reversible and selective inhibitor of AChE
